Consider one molecule from PMC6813295, “A tumour-selective cascade activatable self-detained system for drug delivery and cancer imaging” (Nature Communications, 2019).

The assay has as its system H460 tumour-bearing nude mice. The assay is described as follows: In vivo antitumor efficacy and safety of treatment. Also on record: species or system mouse. The conditions noted are these: five times, n = 5. From the text:
Data are presented as mean ± s.d.
(1 picture or pasted object on this page, not shown here)

In the case of `COc1cccc2c1C(=O)c1c(O)c3c(c(O)c1C2=O)C[C@@](O)(C(=O)CO)C[C@@H]3O[C@H]1C[C@H](N)[C@H](O)[C@H](C)O1` [DOX, doxorubicin], for the setting “i.v. DOX dose 2.0 mg/kg, once every other day”, the “mean tumour volume after 14 days” value is reported as 854 mm^3. Further, under “i.v. identical DOX dose 2.0 mg/kg, Kaplan–Meier”, the median survival time is 12 days.
